Laboratory results published in patent US20180346446A1, “IRE1 SMALL MOLECULE INHIBITORS” (QUENTIS THERAPEUTICS, INC., priority 2017, published 2018).

Each compound was assayed against IRE1a (Homo sapiens, UniProt O75460) (assay: In vitro FRET assay (XBP1 RNA probe cleavage by IRE1a)). Conditions: 2 nM IRE1a protein.
Type: biochemical
Set-up: purchased SignalChem
Method: In vitro FRET assay was performed to evaluate the ability of select compounds to inhibit IRE1, the results of which are summarized in Table 3. To perform the in vitro FRET assay, 1× complete assay buffer (CAB; […], 50 mM sodium citrate pH 7.15, ImM magnesium acetate, 0.02% tween 20) was used to dilute SignalChem IRE1a protein to a final concentration of 2 nM. Selected compounds were serially diluted with DMSO in a non-binding black 384-well plate for a total of 15 ul in each well. 2 ul of the serially diluted compound or DMSO control were then added to new wells containing 98 ul of 1×CAB, for a total volume of 100 ul, 10 ul of which were then transferred to wells of a new plate. 5 ul of the diluted IRE1a was then added to each well. 5 ul of a […] XBP1 RNA probe was then added to each well. Fluorescence was then read over 30 minutes in kinetic mode (485/515 nm).
Two RNA probes were used, XBP1 wildtype (SEQ ID NO: 2) which is able to be spliced by active IRE1a or XBP1 mutant (SEQ ID NO: 3) which is unable to be spliced. Each probe contained a 5′ 6-FAM modification and a 3′ IOWA Black FQ modification. […]

IRE1a, sequence (O75460 19-977): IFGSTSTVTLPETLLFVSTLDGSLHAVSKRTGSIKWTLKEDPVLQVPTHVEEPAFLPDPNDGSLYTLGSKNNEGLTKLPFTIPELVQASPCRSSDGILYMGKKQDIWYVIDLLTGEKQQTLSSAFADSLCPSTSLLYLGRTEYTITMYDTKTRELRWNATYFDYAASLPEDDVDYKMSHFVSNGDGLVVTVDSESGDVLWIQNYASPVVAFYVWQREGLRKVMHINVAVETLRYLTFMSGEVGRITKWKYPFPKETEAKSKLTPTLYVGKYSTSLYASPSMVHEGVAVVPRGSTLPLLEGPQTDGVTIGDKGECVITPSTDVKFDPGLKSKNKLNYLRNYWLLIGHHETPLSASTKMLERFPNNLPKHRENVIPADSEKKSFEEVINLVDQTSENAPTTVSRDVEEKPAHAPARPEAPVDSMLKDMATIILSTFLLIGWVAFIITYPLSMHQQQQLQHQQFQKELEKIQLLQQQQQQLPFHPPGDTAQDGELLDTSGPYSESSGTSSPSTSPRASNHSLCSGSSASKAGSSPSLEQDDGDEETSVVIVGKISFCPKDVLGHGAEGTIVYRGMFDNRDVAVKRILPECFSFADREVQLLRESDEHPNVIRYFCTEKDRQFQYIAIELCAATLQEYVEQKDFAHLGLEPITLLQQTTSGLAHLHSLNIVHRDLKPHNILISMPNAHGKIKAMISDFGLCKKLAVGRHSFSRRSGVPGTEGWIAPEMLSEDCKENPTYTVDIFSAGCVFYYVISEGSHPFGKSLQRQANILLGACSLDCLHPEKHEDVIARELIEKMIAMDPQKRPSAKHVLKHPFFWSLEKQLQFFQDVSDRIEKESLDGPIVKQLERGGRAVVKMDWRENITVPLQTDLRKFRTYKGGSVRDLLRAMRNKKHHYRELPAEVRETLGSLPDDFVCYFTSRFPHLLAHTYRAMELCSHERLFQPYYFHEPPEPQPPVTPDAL

CCc1cc(-c2ccc(NS(=O)(=O)c3ccccc3Cl)cc2C(F)(F)F)cc2cnc(N[C@H]3CC[C@H](N)CC3)nc12 [14; Formic Acid] and CCc1cc(-c2ccc(NS(=O)(=O)c3ccccc3Cl)cc2Cl)cc2cnc(N[C@H]3CC[C@H](N)CC3)nc12 [17; Formic Acid] cannot be ordered by IC50: greater than 100 nM for the first, greater than 100 nM for the second.

First: CCc1cc(-c2ccc(NS(=O)(=O)c3ccccc3)cc2C)cc2cnc(N[C@H]3CC[C@H](N)CC3)nc12 [15; Formic Acid]
Second: COc1cc(-c2ccc(NS(=O)(=O)c3ccccc3Cl)cc2C)cc2cnc(N[C@H]3CC[C@H](N)CC3)nc12 [36; Formic Acid]
The IC50 of the first is higher: greater than 100 nM for the first, no more than 5 nM for the second. The second is the more potent here.

First: Cc1cc(N(C)S(=O)(=O)c2ccccc2Cl)ccc1-c1cc(O)c2nc(N[C@H]3CC[C@H](N)CC3)ncc2c1 [30; Formic Acid]
Second: CCc1cc(-c2ccc(N(C)S(=O)(=O)c3ccccc3Cl)cc2C)cc2cnc(N[C@H]3CC[C@H](N)CC3)nc12 [31; Formic Acid]
The IC50 of the first is lower: 50 to 100 nM for the first, greater than 100 nM for the second.

CCc1cc(-c2sc(NS(=O)(=O)c3ccccc3Cl)nc2C)cc2cnc(N[C@H]3CC[C@H](N)CC3)nc12 [38; Formic Acid] and CCc1cc(-c2cnc(NS(=O)(=O)c3ccccc3Cl)s2)cc2cnc(N[C@H]3CC[C@H](N)CC3)nc12 [41; Formic Acid] cannot be ordered by IC50: no more than 5 nM for the first, no more than 5 nM for the second.

CCc1cc(-c2cnc(NS(=O)(=O)c3ccccc3Cl)nc2)cc2cnc(N[C@H]3CC[C@H](N)CC3)nc12 [39; Formic Acid] and CCc1cc(-c2cc(F)c(NS(=O)(=O)c3ccccc3Cl)c(F)c2)cc2cnc(N[C@H]3CC[C@H](N)CC3)nc12 [63; Formic Acid] cannot be ordered by IC50: no more than 5 nM for the first, no more than 5 nM for the second.

First: CC(C)c1cc(-c2cc(NS(=O)(=O)c3ccccc3Cl)nn2C)cc2cnc(N[C@H]3CC[C@H](N)CC3)nc12 [40; Formic Acid]
Second: COc1cc(-c2cc(NS(=O)(=O)c3ccccc3Cl)nn2C)cc2cnc(N[C@H]3CC[C@H](N)CC3)nc12 [45; Formic Acid]
The IC50 of the first is lower: no more than 5 nM for the first, 50 to 100 nM for the second. The first is the more potent here.

CCc1cc(-c2cc(F)c(NS(=O)(=O)c3ccccc3Cl)cc2OC)cc2cnc(N[C@H]3CC[C@H](N)CC3)nc12 [42; Formic Acid] and CCc1cc(-c2ccc(NS(=O)(=O)c3ccccc3Cl)nc2OC)cc2cnc(N[C@H]3CC[C@@H](N)CC3)nc12 [140; Formic Acid] cannot be ordered by IC50: no more than 5 nM for the first, no more than 5 nM for the second.

CCc1cc(-n2cc(NS(=O)(=O)c3ccccc3Cl)cn2)cc2cnc(N[C@H]3CC[C@H](N)CC3)nc12 [43; Formic Acid] and CCc1cc(NS(=O)(=O)c2ccccc2Cl)nnc1-c1cc(CC)c2nc(N[C@H]3CC[C@H](N)CC3)ncc2c1 [96; Formic Acid] cannot be ordered by IC50: no more than 5 nM for the first, no more than 5 nM for the second.

N[C@H]1CC[C@H](Nc2ncc3cc(-c4ccc(NS(=O)(=O)c5ccccc5Cl)nn4)ccc3n2)CC1 [49; Formic Acid] and N[C@H]1CC[C@H](Nc2ncc3cc(-c4ccc(NS(=O)(=O)c5ccccc5Cl)c(F)c4)ccc3n2)CC1 [50; Formic Acid] cannot be ordered by IC50: no more than 5 nM for the first, no more than 5 nM for the second.

CCc1cc(-c2ccc(NS(=O)(=O)c3ccccc3Cl)nc2OC)cc2cnc(N[C@H]3CC[C@H](O)CC3)nc12 [101; Formic Acid] and CCc1cc(-c2ccc(NS(=O)(=O)c3ccccc3Cl)nc2OC)cc2cnc(NC3CCC(C)(N(C)C)CC3)nc12 (stereo not shown) [143; Formic Acid] fall in the same range of IC50: 5 to 50 nM for the first, 5 to 50 nM for the second.

CCc1nc(NS(=O)(=O)c2ccccc2Cl)ccc1-c1cc2cnc(N[C@H]3CC[C@H](N)CC3)nc2cc1C [105; Formic Acid] and Cc1cc2nc(N[C@H]3CC[C@H](N)CC3)ncc2cc1-c1ccc(NS(=O)(=O)c2ccccc2Cl)nc1C [106; Formic Acid] cannot be ordered by IC50: no more than 5 nM for the first, no more than 5 nM for the second.

COc1nc(NS(=O)(=O)c2ccccc2Cl)ccc1-c1ccc2nc(N[C@H]3CC[C@H](N)CC3)ncc2c1C [114; Formic Acid] and COc1nc(NS(=O)(=O)c2ccccc2Cl)c(F)cc1-c1cc(C)c2nc(N[C@H]3CC[C@@H](N)CC3)ncc2c1 [146; Formic Acid] cannot be ordered by IC50: 5 to 50 nM for the first, no more than 5 nM for the second.

CCc1cc(-c2cc(F)c(NS(=O)(=O)c3ccccc3Cl)nc2OC)cc2cnc(N[C@H]3CC[C@@](C)(N(C)C)CC3)nc12 [144; Formic Acid] showed an IC50 of 50 to 100 nM.
